Assay [1] can be described thus: Inhibition of Smo in mouse Shh Light2 cells assessed as inhibition of SAG-induced Hh pathway activity by measuring SAG-EC50 at 50 nM measured after 36 hrs by Gli-luciferase reporter gene assay (Rvb = 2.93 nM).
Assay [2] is described as follows: Inhibition of Smo in mouse Shh Light2 cells assessed as inhibition of SAG-induced Hh pathway activity by measuring SAG-EC50 at 100 nM measured after 36 hrs by Gli-luciferase reporter gene assay (Rvb = 2.93 nM). A general note: Reporter assays use an easily measured gene product as a stand-in for the process of interest.
A short description of assay [3]: Inhibition of Smo in mouse Shh Light2 cells assessed as inhibition of SAG-induced Hh pathway activity by measuring SAG-EC50 at 500 nM measured after 36 hrs by Gli-luciferase reporter gene assay (Rvb = 2.93 nM).

What is called EC50 is the concentration that produces a half-maximal response. Regarding `Cc1ccc2c(n1)[C@H]([C@@H](C)C(=O)Nc1ccc(Cl)c(-c3nc4ccccc4n3C)c1)CC[C@H]2C`, the EC50 in assay [1] was 24 nM; in assay [2], 47 nM; in assay [3], 137 nM.

For the origin of these results see BindingDB's records for doi:10.1021/acs.jmedchem.6b01247 (University of Chinese Academy of Sciences, 2016).
